# From patent publication US20080242594A1, “Methods for Promoting Stem Cell Proliferation and Survival” (priority 2005, published 2008)
# Columns and labels:
# [1] = tested on: mES (D3) cells; assay: mES cell plating efficiency, Oct4 and STAT3 phosphorylation in the presence of LIF; type: cell-based, mouse; conditions: for Oct4 expression: five day treatments in the presence of LIF; for cell survival in a plating efficiency assay: in the presence of LIF
# Text: FIGS. 10a-10c are a set of images showing JAK inhibition reduces the phosphorylation of STAT3 on Ser727 in mES cell cultures. […] Very low levels of phosphorylated p38 were detectable under all conditions. […] Self-renewal of mES cells correlated with Ser727 phosphorylation.
# mES (D3) cells were obtained from ATCC and were maintained in feeder-free cultures on gelatin-coated plates supplemented with 1400 units/ml LIF.
# There is great interest in conditions that support the growth of mouse and human ES cells. In contrast to CNS SC (FIG. 2, FIG. 3) and hES SC (se below), the growth of undifferentiated mouse ES cells depends on the stimulation of the JAK/STAT pathway and STAT3 phosphorylation on Tyr705 has been specifically shown to be essential for self-renewal of mouse ES cells (Niwa et al., Genes Dev 12:2048-60, 1998; Matsuda et al., Embo J 18:4261-9, 1999). Ligands that stimulate the JAK/STAT pathway cause human ES cells to differentiate (Daheron et al., Stem Cells 22:770-8, 2004; Humphrey et al., Stem Cells 22:522-30, 2004). It was determined if the Notch/sSTAT survival pathway is present in mouse or human ES cells.
# [2] = tested on: Hes3; assay: Hes3 expression (RT-PCR, immunohistochemistry) in CNS stem cells; type: cell-based, mouse; conditions: for Hes3 mRNA levels: CNTF 20 ng/ml
# Experimental: RT-PCR: For reverse-transcriptase PCR analysis, RNA was extracted from cell cultures or brain homogenates with Trizol (Invitrogen, 15596-026), and PCR reactions were performed with the ProSTAR First-Strand RT-PCR Kit (Stratagene, 200420). Primers were used for the following genes: Hes1, Hes2, Hes3, Hes5, Hes6, Hey2; Hes7
# Notch signaling regulates transcription of the Hes/Hey gene family, a group of genes implicated in the control of differentiation (Iso et al., J Cell Physiol 194:237-55, 2003). RT-PCR was used to assess mRNA regulation of these genes one hour after Notch activation in CNS stem cells. […] The ability of high concentrations of CNTF to inhibit Hes3 induction following Notch activation was dependent on JAK activity (FIG. 4e). In contrast, in the absence of added Notch ligand, Hes3 mRNA levels were elevated by high CNTF and the JAK inhibitor (FIG. 4e).
# Conversely, treatment with ciliary neurotrophic factor (CNTF), a cytokine that opposes the signal transduction pathway downstream of Notch activation opposed the ability of D114 to induce Hes3 transcription. Immunohistochemical experiments were performed that documented D114, CNTF regulate Hes3 expression. Thus, at the protein expression level, D114 maintains and CNTF inhibits Hes3 expression.
# [3] = tested on: E13.5 cortical embryonic mouse CNS stem cells; assay: CNS stem cell plating efficiency / colony formation / survival; type: cell-based
# Experimental: (§1) Cell culture: E13.5 cortical embryonic mouse and adult rat subventricular zone CNS stem cells were grown as previously described (Johe et al., Genes Dev 10:3129-40, 1996; Rajan et al., J Neurosci 18:3620-9, 1998). Cells were expanded in serum-free DMEM/F12 medium with N2 supplement with FGF2 (20 ng/ml) for 5 days and were re-plated at 1000-10,000 cells per cm^2. FGF2 was included throughout our experiments, unless otherwise stated.
# To explore these paradoxical observations, CNS stem cell cultures from mid-gestation (embryonic day 13.5) mouse dorsal telencephalon were treated with soluble Notch ligands. […] Following initial passaging, the cells were plated at a density of 1000 cells/cm^2, cultured for 5 days in the presence of FGF2, and colony numbers, sizes, and BrdU incorporation (after a 4 hour BrdU pulse) were enumerated. Notch activation by Jagged-1 or Delta-4 (200 ng/ml) increased the number of colonies generated in vitro by over 3-fold (FIG. 1a). […] The effects of Notch activation were most dramatic when treatments were initiated at the start of the culture.
# Insulin in the medium is also thought to promote cell survival. […] Seeding cells in the absence of insulin caused the plating efficiency measured at five days to drop to 29.9%±37.9 (FIG. 1e). Delta-4 was able to compensate for the lack of insulin in the medium, and restored plating efficiency (125%±19.4). Because Notch activation improved survival, activation of Akt, a ser/threonine kinase known to be involved in cell survival, was assayed. Notch activation rapidly (5 minutes) promoted the phosphorylation of Akt on Ser473 and […] in both the presence and absence of insulin (FIG. 1f).
# [4] = tested on: adult rat SVZ stem cells; assay: Adult SVZ stem cell plating efficiency and colony size; type: cell-based
# Experimental: as §1
# Very little protein or mRNA were detected outside the SVZ (FIG. 4g). Adult CNS stem cells can be cultured as a monolayer in vitro (FIG. 4h) and they show similar responses to extracellular signals that regulate stem cell differentiation upon withdrawal of the mitogen that sustains the undifferentiated state (Johe et al., Genes Dev 10:3129-40, 1996). To ask if Notch activation promotes survival in rat adult SVZ cultures, isolated cells were grown in the presence of FGF2 with and without Delta-4 for one week. […] When FGF2 was withdrawn for a week, cells at clonal density generated all three CNS lineages (FIG. 8C, Table 4).
# [5] = tested on: STAT3; assay: STAT3 phosphorylation (Ser727, Tyr705) immunoblot in CNS stem cells; type: cell-based, mouse
# Text: Ligands that activate JAK/STAT signaling promote astrocytic differentiation of CNS stem cells (Johe et al., Genes Dev 10:3129-40, 1996; Raj an et al., J Neurosci 18:3620-9, 1998; Bonni et al., Science 278:477-83, 1997; Song et al., Nat Neurosci 7:229-35, 2004; He et al., Nat Neurosci 8:616-625, 2005). When applying CNTF to CNS stem cells it was noted that low concentrations of CNTF stimulated survival but not expression of astrocyte specific genes. This is consistent with previous observations of Akt phosphorylation downstream of gp130 activation (Taga et al., Annu Rev Immunol 15:797-819, 1997). […] At high concentrations (20 ng/ml) the phosphorylation of Tyr705 can be blocked by an inhibitor of JAK while allowing a CNTF-induced increase in Ser727 phosphorylation (FIG. 2B) (Thompson et al., Bioorg Med Chem Lett 12:1219-23, 2002).
# CNTF was used as a positive control; CNTF, induced the phosphorylation on both sites. With both CNTF and Notch activation, phosphorylation peaked at around 30 min. STAT3 phosphorylation on Ser727 following Notch activation was sensitive to the γ-secretase inhibitor DAPT (FIG. 2e). […] In contrast to CNTF, no Tyr705 phosphorylation was detected at any of the doses of Notch receptor ligands.
# It was determined that insulin also maintains phosphorylation of serine 727 in STAT3 in foetal neural stem cell cultures.
# [6] = in the presence of FGF2 for one week
Molecule,Oct4 expression [1],cell survival in a plating efficiency assay [1],Hes3 mRNA levels [2],Hes3 expression at the protein expression level ([2]; immunohistochemical),"plating efficiency ([3]; absence of insulin in the medium, five days)","colony size [4, 6]","plating efficiency [4, 6]","concentration at which peak STAT3 phosphorylation was achieved ([5]; dose response, Ser727) [ng/mL]",STAT3 phosphorylation on Ser727 and Tyr705 ([1]; 90 min),"CNS stem cell survival / plating efficiency ([3]; 5 days, versus FGF2 control, CNTF low 0.01, 0.1 ng/ml or high 20 ng/ml with JAK inhibitor)",enhancement of plating efficiency [4],effect on CNTF-induced STAT3 phosphorylation ([5]; CNTF 20 ng/ml)
Delta-4: soluble Notch ligand Delta-4 (1389-D4) from R&D,did not affect Oct4 expression,did not significantly alter cell survival,increases its transcription,maintains,125%±19.4,278.5%±52.5,1050%±273.8,~1,,,,
"CC(C)(C)c1nc2c3ccc(F)cc3c3c(=O)[nH]ccc3c2[nH]1 [JAK Inhibitor, 2-(1,1-Dimethylethyl)-9-fluoro-3,6-dihydro-7H-benz[h]-imidaz[4,5-f]isoquinolin-7-one]",down-regulated Oct4,reduced it,no effect on Hes3 mRNA,,,,,,significant down-regulation,increased survival,approx. 40%,selectively blocked Tyr705 but not Ser727 phosphorylation
